According to patent US8524713B2, “Substituted spirocyclic piperidine derivatives as histamine-3 (H3) receptor ligands” (Cephalon, Inc, priority 2008, dated 2013):

Assays:
[1] = target: T1, rat histamine H3 receptor (Rattus norvegicus, UniProt Q9QYN8); assay: Rat H3 radioligand binding ([3H]-N-alpha-methylhistamine, SPA); conditions: membranes of CHO-A3 cells expressing rat H3 receptor; [3H]-N-alpha-methylhistamine about 1 nM
T1 construct: encoding the entire 445-amino-acid rat histamine H3 receptor; expressed in transfected cells; membrane preparation
T1 sequence (Q9QYN8 whole entry): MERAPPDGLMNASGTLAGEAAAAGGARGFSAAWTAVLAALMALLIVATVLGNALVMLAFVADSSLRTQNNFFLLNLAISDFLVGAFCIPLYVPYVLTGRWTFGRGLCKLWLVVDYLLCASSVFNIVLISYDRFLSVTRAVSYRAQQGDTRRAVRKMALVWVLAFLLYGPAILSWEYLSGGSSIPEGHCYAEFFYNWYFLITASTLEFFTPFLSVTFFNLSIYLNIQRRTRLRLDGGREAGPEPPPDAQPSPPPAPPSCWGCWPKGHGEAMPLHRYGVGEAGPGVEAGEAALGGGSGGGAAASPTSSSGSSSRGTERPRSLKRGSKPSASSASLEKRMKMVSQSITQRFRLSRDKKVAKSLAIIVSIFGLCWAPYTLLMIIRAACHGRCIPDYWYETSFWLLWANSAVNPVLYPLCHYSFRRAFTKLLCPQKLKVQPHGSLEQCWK
Text: Cell line development and membrane preparation. The rat H3 receptor cDNA was PCR amplified from reverse-transcribed RNA pooled from rat thalamus, hypothalamus, striatum and prefrontal cortex with a sequence corresponding to by #338-1672 of Genbank file #NM_053506, encoding the entire 445-amino-acid rat histamine H3 receptor. This was engineered into the pIRES-neo3 mammalian expression vector, which was stably transfected into the CHO-A3 cell line (Euroscreen, Belgium), followed by clonal selection by limiting dilution. Cells were harvested and cell pellets were frozen (−80° C.). Cell pellets were resuspended in 5 mM Tris-HCl, pH 7.5 with […] and a cocktail of protease inhibitors (Complete Protease Inhibitior Tablets, Roche Diagnostics). Cells were disrupted using a polytron cell homogenizer and the suspension was centrifuged at 1000×g for 10 minutes at 4° C. The pellet was discarded and the supernatant centrifuged at 40,000×g for 30 min at 4° C. This membrane pellet was washed in membrane buffer containing 50 mM Tris-HCl, pH 7.5 with 0.6 mM EDTA, 5 mM MgCl2 and protease inhibitors, recentrifuged as above and the final pellet resuspended in membrane buffer plus 250 mM sucrose and frozen at −80° C.
(§1) Radioligand Binding. Membranes were resuspended in 50 mM Tris HCl (pH 7.4), 5 mM MgCl2, 0.1% BSA. The membrane suspensions (10 μg protein per well) were incubated in a 96 well microtiter plate with [^3H]-N-alpha-methylhistamine (approximately 1 nM final concentration), test compounds at various concentrations (0.01 nM-30 μM) and scintillation proximity beads (Perkin Elmer, FlashBlueGPCR Scintillating Beads) in a final volume of 80 μl for 4 hours at room temperature, protected from light. Non-specific binding was determined in the presence of 10 μM clobenpropit. Radioligand bound to receptor, and therefore in proximity to the scintillation beads, was measured using a MicroBeta scintillation counter.

human H3 receptor = target: T2, human H3 receptor (Homo sapiens, UniProt Q9Y5N1); assay: Human H3 radioligand binding ([3H]-N-alpha-methylhistamine, SPA); conditions: membranes of CHO cells expressing human H3 receptor; [3H]-N-alpha-methylhistamine about 1 nM
T2 construct: expressed in transfected cells; membrane preparation
T2 sequence (Q9Y5N1 whole entry): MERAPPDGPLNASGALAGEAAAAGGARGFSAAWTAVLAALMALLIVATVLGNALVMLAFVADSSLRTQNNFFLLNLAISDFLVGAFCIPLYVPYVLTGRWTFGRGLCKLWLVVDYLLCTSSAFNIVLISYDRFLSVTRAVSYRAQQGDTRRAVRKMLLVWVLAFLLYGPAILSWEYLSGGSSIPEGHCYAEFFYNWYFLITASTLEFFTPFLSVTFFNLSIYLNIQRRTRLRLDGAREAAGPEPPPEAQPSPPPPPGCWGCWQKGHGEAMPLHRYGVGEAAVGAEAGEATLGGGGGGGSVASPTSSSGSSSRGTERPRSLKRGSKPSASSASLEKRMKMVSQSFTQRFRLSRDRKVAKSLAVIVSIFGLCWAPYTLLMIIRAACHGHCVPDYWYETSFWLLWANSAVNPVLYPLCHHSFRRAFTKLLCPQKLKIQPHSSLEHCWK
Experimental: Methods: CHO cells stably expressing the human H3 receptor (GenBank: NM_007232) were harvested and cell pellets were frozen (−80° C.). Cell pellets were resuspended in 5 mM Tris-HCl, pH 7.5 with […] and a cocktail of protease inhibitors (Complete Protease Inhibitior Tablets, Roche Diagnostics). Cells were disrupted using a polytron cell homogenizer and the suspension was centrifuged at 1000×g for 10 minutes at 4° C. The pellet was discarded and the supernatant centrifuged at 40,000×g for 30 min at 4° C. This membrane pellet was washed in membrane buffer containing 50 mM Tris-HCl, pH 7.5 with 0.6 mM EDTA, 5 mM MgCl2 and protease inhibitors, recentrifuged as above and the final pellet resuspended in membrane buffer plus 250 mM sucrose and frozen at −80° C.
as §1

| SMILES | Ki [1] [nM] | Ki (human H3 receptor) [nM] | melting point [°C] |
| --- | --- | --- | --- |
| Clc1ccc(-c2ccc3c(c2)CC2(CCN(C4CCC4)CC2)O3)nn1 [Example 15, 1′-Cyclobutyl-5-(6-chloropyridazin-3-yl)spiro[benzofuran-2(3H)-4′-piperidine]] | < 200 | < 200 | 193 to 194 |
| O=c1ccc(-c2ccc3c(c2)CC2(CCN(C4CCC4)CC2)O3)n[nH]1 [Example 16, 1′-Cyclobutyl-5-(6-oxo-1,6-dihydropyridazin-3-yl) spiro[benzofuran-2(3H)-4′-piperidine]] | < 200 | < 200 | 227 to 228 |
| O=c1ccc(Oc2ccc3c(c2)CCC2(CCN(C4CCC4)CC2)O3)n[nH]1 [Example 18] | < 200 | < 200 | 233 to 235 |
| O=c1cc(-c2ccc3c(c2)CCC2(CCN(C4CCC4)CC2)O3)cn[nH]1 [Example 19] | < 200 | < 200 | 216 to 219 |
| Cn1nc(-c2ccc3c(c2)CCC2(CCN(C4CCC4)CC2)O3)ccc1=O [Example 20] | < 200 | < 200 | 147 to 149 |
| O=c1ccc(-c2ccc3c(c2)CCC2(CCN(C4CCC4)CC2)O3)n[nH]1 [Example 21] | < 200 | < 200 | 273 to 275 |
| Cn1nc(-c2ccc3c(c2)COC2(CCN(C4CCC4)CC2)O3)ccc1=O [Example 27] | < 200 | < 200 | 185 to 187 |
| O=c1ccc(-c2ccc3c(c2)COC2(CCN(C4CCC4)CC2)O3)n[nH]1 [Example 28] | < 200 | < 200 | 273 to 275 |
| Cc1cc2c(cc1-c1ccc(=O)[nH]n1)COC1(CCN(C3CCC3)CC1)O2 [Example 29] | 200 to 1000 | 200 to 1000 | 230 to 232 |
| O=c1[nH]nc(-c2ccc3c(c2)COC2(CCN(C4CCC4)CC2)O3)c2ccccc12 [Example 32] | < 200 | < 200 | 258 to 259 |
| O=c1cc(-c2ccccc2)c(-c2ccc3c(c2)COC2(CCN(C4CCC4)CC2)O3)n[nH]1 [Example 33] | < 200 | < 200 | 260 to 262 |
| O=C1CCC(c2ccc3c(c2)COC2(CCN(C4CCC4)CC2)O3)=NN1 [Example 36] | < 200 | < 200 | 192 to 194 |
